Experimental data: paper PMC3014287 (Molecular cell, 2010)

How the values were obtained:
[1] = target: T1, PKCβII (Homo sapiens, UniProt P05771); assay: […] kinase assay with substrate peptide, Dixon plot; format: biochemical
[2] = target: AKAP79(1-81)-CKAR (human) (UniProt P24588)
[3] = target: T1, PKCβII; assay: […] kinase assay with substrate peptide, Dixon plot; format: biochemical; remark: listed apart in the source

CN(C)CCCn1cc(C2=C(c3c[nH]c4ccccc34)C(=O)NC2=O)c2ccccc21 [BIS I, bisindolylmaleimide I]
Ki [1]: 14.5 ± 4.6 nM

PKCβII (Calbiochem) (from UniProt P05771-2 1-673) (enzyme)
T½ of the FRET response of the reporter to Oxo-M in CHO cells (cellular PKC) [2]: 8.3 s

O=C1NC(=O)C(c2c[nH]c3ccccc23)=C1c1c[nH]c2ccccc12 [BIS IV, bisindolylmaleimide IV]
32P kinase assay with substrate peptide, Dixon plot [3]: BIS IV, a bisindolylmaleimide derivative that lacks the dimethylamino group is an uncompetitive inhibitor with respect to the substrate peptide
